Where no end group is shown, it is not given here. [ ]: non-standard residue; d: D form. lysine‑palmitate = lysine-palmitate bound at the N-terminal end; pY = N[C@@H](Cc1ccc(OP(=O)(O)O)cc1)C(=O)O
What was measured:
Assay type in all cases: in vivo
diabetic mice (db/db) [1] = assay: Retinal apoptosis by TUNEL, topical eye drops
Experimental: (§1) 8-week old diabetic mice (db/db) received the miS1 peptide in the form of eye drops (5 μL drops in each eye; 10 mg/mL; twice a day for 15 days; n=7 mice). Diabetic mice treated with the non-functional peptide Mut (n=7), treated with vehicle and non-diabetic mice (db/+) were used as controls. The eye drops were directly administered on the upper surface of the cornea of each eye using a micropipette. The weight and glycemia (colorimetric assay) were controlled throughout the study period. On day 15, the drop with the miS1 peptide or vehicle was administered about two hours before autopsy. The animals were euthanized by cervical dislocation and the enucleated eyes were immediately frozen and dorsoventral sections of 8 mm were cut for analyzing retinal morphology and other immunohistochemical analyses.
Glial activation was evaluated by means of GFAP (Glial fibrillar acidic protein) immunofluorescence following the methodology described in other studies (Bogdanov et al. PLoS One. 2014; 9:e97302). The fixed sections were blocked (1% BSA and 10% goat serum in PBS, 2 hours at RT) and incubated with anti-GFAP antibodies (dilution 1:500, 16 hours at 4° C.) followed by a secondary antibody (Alexa 488-conjugated goat anti-rabbit, dilution 1:200). […] The images of diabetic and control samples were taken with identical parameters and the topographic distribution of the GFAP labelling was analyzed in a scale of 0 to 5 (Anderson et al. Clin Ophthalmol 2008; 2(4):801-16). […] Apoptosis was determined by means of TUNEL (Terminal Transferase dUTP Nick-EndLabeling; fluorescence kit) immunohistochemistry using the previously described method (Bogdanov et al. PLoS One. 2014; 9:e97302) and subsequent quantification under a fluorescence microscope. […] The apoptotic cells were identified using green fluorescence [[…] goat-anti-rabbit (Invitrogen) (dilution 1:200 prepared in PBS)]. An excitation wavelength in the interval of 450-565 nm (e.g., 488 nm) was used for evaluation using fluorescence microscopy and the interval of 515-565 nm (green) was used for detection. […]

diabetic mice (db/db) [2] = assay: Retinal glutamate metabolism (GLAST immunofluorescence, glutamate by UPLC); conditions: eye drops 15 days
Experimental: as §1, with “The animals were euthanized by cervical dislocation and the enucleated eyes were immediately frozen and dorsoventral sections of 8 mm were cut for analyzing retinal morphology and other immunohistochemical analyses.” left out
The glutamate metabolism was evaluated in order to investigate the mechanisms through which the miS1 peptide produces neuroprotection. The glutamate concentration was determined by means of ultra-high performance liquid chromatography (UPLC) (Acquity-UPLC, Waters) MassTrak amino acid system). The GLAST (Glutamate/Aspartate transporter) was evaluated by means of immunofluorescence.
The paraffin sections were deparaffinized in xylene and rehydrated in a gradual series of ethanol. […] The GLAST immunofluorescence was quantified by means of laser confocal microscopy (Olympus FluoView™ FV1000 confocal microscope, Hamburg, Germany) using the ImageJ software.

[3] = system: streptozotocin diabetic apoE-deficient mice; assay: Kidney histology (lesions, fibrosis, inflammatory infiltrate) in diabetic mice; conditions: STZ apoE mice, i.p. 8 weeks
Experimental: Apolipoprotein E (apoE)-deficient male mice of 8 weeks of age were made diabetic through streptozotocin injection (125 mg/kg weight in 10 mM citrate, pH 4.5, two consecutive days). After 2 weeks, animals with glycemia greater than 350 mg/dL were randomly distributed in two groups (n=9 animals per group): treated animals (miS1 peptide: 65 μg/day, 200 μL, intraperitoneally, every 2 days for 8 weeks) and controls (vehicle). The weight and glycemia (colorimetric assay) were controlled throughout the study period.
At the end of the study, the anesthetized animals were perfused with saline and sacrificed, processing the tissues immediately. In renal cortex (paraffin sections, 5 μm) the glomerular and tubulointerstitial morphology was studied by means of PAS and Masson trichrome staining and the lesions were evaluated in a double-blind and semi-quantitative manner in a scale of 0-3. Renal fibrosis was determined by means of Picro-Sirius red staining and the infiltrating inflammatory cells (F4/80+ macrophages and CD3+ T-lymphocytes) by immunohistochemistry. In the aorta, the root/arch zone (serial cryosections of 8 μm from the valves to an extension of 1000 μm) was stained with Oil-red-O/hematoxylin and the area of the atherosclerotic lesion was quantified (Metamorph program). Plaque stability was assessed by collagen fiber staining with Picro-Sirius red and α-actin immunofluorescence. The inflammatory component was determined by means of immunohistochemistry for monocyte/macrophages (Moma2). The Image Pro-Plus program was used for quantifying positive stainings. The biochemical parameters in serum (glycated hemoglobin, cholesterol and creatinine) and in urine (albumin and creatinine) were determined by means of conventional commercial kits.

[4] = eye drops 50 μg in 5 μL/eye twice a day, 15 days

In the case of “miS1: SEQ ID NO 1 DTHFRTFRSHSDYRRI, kinase inhibitory region of murine SOCS1, bound to lysine-palmitate at the N-terminal end, tyrosine phosphorylated ({lysine‑palmitate}-DTHFRTFRSHSD[pY]RRI)”, the “apoptosis rate (TUNEL) vs diabetic mice treated with vehicle” value (diabetic mice (db/db) [1]; [4]) is reported as “significantly lower apoptosis rate”, the “percentage of apoptotic cells vs non-diabetic mice” value (diabetic mice (db/db) [1]; [4]) is reported as “No differences” and the reduction of apoptosis (diabetic mice (db/db) [1]; eye drops 15 days, compared with groups that received Mut peptide or vehicle) is reported as “about 80%”. For the same substance, the intraretinal glutamate levels (diabetic mice (db/db) [2]; UPLC) was “reduced but without reaching statistical significance”, the “GLAST content in retina” value (diabetic mice (db/db) [2]; immunofluorescence) was “downregulation was prevented” and the “inflammatory lymphocyte and macrophage infiltrate in kidney” value [3] was “significantly reduced”. The tubulointerstitial fibrosis [3] was “significantly reduced”, the “glomerular lesions (hypercellularity, mesangial expansion and glomerular hypertrophy)” value ([3]; vs vehicle) was “improvement” and the “tubulointerstitial lesions (atrophy, degeneration and infiltrate)” value ([3]; vs vehicle) was “improvement”.
